Assay results: patent US6511974B1, “Tricyclic vasopressin agonists” (Wyeth, priority 1997, dated 2003)

Columns and labels:
Vasopressin V2 = target: T1, Vasopressin V2 (Rattus norvegicus, UniProt Q00788); assay: Vasopressin V2 agonist effects in normal conscious water-loaded rats; assay type: in vivo; conditions: Sprague-Dawley (CD) rats, urine collected four hours; for Urine Volume (% decrease): 10 mg per kg oral, percent decrease in urine volume vs. control; for Osmolality (% Increase): 10 mg/kg oral, change in osmolality as percent of control
T1 construct: vasopressin V2 receptors of the nephrons of the kidney; tissue Charles River Laboratories, Inc; host or cells: whole living animal (kidney collecting ducts)
Text: Vasopressin V2 Agonist Effects of Test Compounds in Normal Conscious Water-Loaded Rats:
Male or female normotensive Sprague-Dawley rats (Charles River Laboratories, Inc., Kingston, N.Y.) of 350-500 g body weight were supplied with standard rodent diet (Purina Rodent Lab. Chow 5001) and water ad libitum. On the day of test, rats were placed individually into metabolic cages equipped with devices to separate the feces from the urine and containers for collection of urine. Test compound or reference agent was given at an oral dose of 10 mg/kg in a volume of 10 ml/kg. The vehicle used was 20% dimethylsulfoxide (DMSO) in 2.5% preboiled corn starch. Thirty minutes after dosing the test compound, rats were gavaged with water at 30 ml/kg into the stomach using a feeding needle. During the test, rats were not provided with water or food. Urine was collected for four hours after dosing of the test compound. At the end of four hours, urine volume was measured. Urinary osmolality was determined using a Fiske One-Ten Osmometer (Fiske Associates, Norwood, Mass., 02062) or an Advanced CRYOMATIC Osmometer, Model 3C2 (Advanced Instruments, Norwood, Mass.). Determinations of Na^+, K^+ and Cl^− ion were carried out using ion specific electrodes in a Beckman SYNCHRON EL-ISE Electrolyte System analyzer. The urinary osmolality should increase proportionally. In the screening test, two rats were used for each compound. If the difference in the urine volume of the two rats was greater than 50%, a third rat was used.

T1 sequence (Q00788 whole entry): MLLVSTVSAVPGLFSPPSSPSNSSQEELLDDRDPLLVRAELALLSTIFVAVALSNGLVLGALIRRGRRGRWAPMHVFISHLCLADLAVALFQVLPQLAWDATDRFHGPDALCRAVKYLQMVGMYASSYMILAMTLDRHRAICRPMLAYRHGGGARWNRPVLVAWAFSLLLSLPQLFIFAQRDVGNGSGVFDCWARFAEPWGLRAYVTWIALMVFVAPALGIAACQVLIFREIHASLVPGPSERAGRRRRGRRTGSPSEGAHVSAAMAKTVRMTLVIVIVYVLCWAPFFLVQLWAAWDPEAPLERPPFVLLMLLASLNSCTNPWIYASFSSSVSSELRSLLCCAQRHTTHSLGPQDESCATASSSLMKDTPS

Urine Volume (% decrease) (Vasopressin V2) [%]	Osmolality (% Increase) (Vasopressin V2) [%]	melting point [°C]	Compound
56	291		Cn1ncnc1-c1ccc(C(=O)N2Cc3cccn3Cc3ccccc32)c(Cl)c1 [Example 84, [2-Chloro-4-(2-methyl-2H-[1,2,4]triazol-3-yl)-phenyl]-(5H,11H-pyrrolo [2,1-c][1,4]benzodiazepin-10)-methanone]
70	325		Cc1ccn(-c2ccc(C(=O)N3Cc4cccn4Cc4ccccc43)c(Cl)c2)n1 [Example 9A]
		179 to 181	Cc1cnn(-c2ccc(C(=O)N3C=C4CC=CN4Cc4ccccc43)cc2)c1 [Example 60, [4-(4-Methyl-pyrazol-1-yl)-phenyl]-(5H,1H-pyrrolo[2,1-c][1,4]-benzodiazepin-10-yl)-methanone]
88	663		C#Cc1ccc(C(=O)N2Cc3cccn3Cc3ccccc32)c(Cl)c1 [Example 123, [2-Chloro-4-ethynyl-phenyl](5H-11H-pyrrolo [1,2-c][1,4]benzodiazepin-10-yl)methanone.]
